# Test results from PMC8222254, “Self-assembly of an anion receptor with metal-dependent kinase inhibition and potent in vitro anti-cancer properties” (Nature Communications, 2021).
# Where “and” joins values, the source holds several entries; their conditions need not be identical. Equal values may be shown once.
# How the values were obtained:
# Test in all cases: Kinase inhibition screen, cell-free 33P ATP assay at 10 μM
# Assay type in all cases: biochemical
# [1] = biological target: T1, 140 purified human kinases (Homo sapiens, UniProt Q15831)
# T1 sequence (Q15831 1-433): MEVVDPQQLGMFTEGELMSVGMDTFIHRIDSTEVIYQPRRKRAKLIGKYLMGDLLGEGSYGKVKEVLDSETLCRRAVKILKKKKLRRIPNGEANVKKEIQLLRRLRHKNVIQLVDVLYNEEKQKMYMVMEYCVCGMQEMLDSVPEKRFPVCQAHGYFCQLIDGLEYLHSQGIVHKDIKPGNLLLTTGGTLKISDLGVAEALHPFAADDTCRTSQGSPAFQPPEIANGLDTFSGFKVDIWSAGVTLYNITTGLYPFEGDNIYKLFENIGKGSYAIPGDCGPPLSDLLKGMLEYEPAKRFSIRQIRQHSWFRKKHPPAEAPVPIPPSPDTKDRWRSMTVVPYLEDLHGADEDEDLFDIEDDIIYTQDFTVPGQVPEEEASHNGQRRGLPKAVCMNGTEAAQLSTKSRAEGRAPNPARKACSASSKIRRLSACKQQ
# In short: (§1)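 Radiometric ^33P ATP cell-free format with purified enzymes; both complexes run at 10 μM in duplicate, results plotted on a kinome map via HGNC symbols.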
# [2] = biological target: 140 purified human kinases (Homo sapiens, UniProt Q16539); conditions: p38a MAPK
# 140 purified human kinases (Homo sapiens, UniProt Q16539), sequence (Q16539 whole entry): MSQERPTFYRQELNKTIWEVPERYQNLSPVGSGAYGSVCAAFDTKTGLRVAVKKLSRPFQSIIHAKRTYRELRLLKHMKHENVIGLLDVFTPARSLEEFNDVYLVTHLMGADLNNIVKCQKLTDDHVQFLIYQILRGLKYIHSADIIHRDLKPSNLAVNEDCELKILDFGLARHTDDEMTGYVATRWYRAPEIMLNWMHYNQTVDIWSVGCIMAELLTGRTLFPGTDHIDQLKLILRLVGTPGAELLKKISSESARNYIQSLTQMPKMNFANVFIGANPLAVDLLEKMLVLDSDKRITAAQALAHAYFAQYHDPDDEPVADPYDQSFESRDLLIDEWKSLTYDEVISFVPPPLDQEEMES
# In short: as §1
# [3] = biological target: 140 purified human kinases (Homo sapiens, UniProt P16234); conditions: PDGFRA
# 140 purified human kinases (Homo sapiens, UniProt P16234), sequence (P16234 24-1089): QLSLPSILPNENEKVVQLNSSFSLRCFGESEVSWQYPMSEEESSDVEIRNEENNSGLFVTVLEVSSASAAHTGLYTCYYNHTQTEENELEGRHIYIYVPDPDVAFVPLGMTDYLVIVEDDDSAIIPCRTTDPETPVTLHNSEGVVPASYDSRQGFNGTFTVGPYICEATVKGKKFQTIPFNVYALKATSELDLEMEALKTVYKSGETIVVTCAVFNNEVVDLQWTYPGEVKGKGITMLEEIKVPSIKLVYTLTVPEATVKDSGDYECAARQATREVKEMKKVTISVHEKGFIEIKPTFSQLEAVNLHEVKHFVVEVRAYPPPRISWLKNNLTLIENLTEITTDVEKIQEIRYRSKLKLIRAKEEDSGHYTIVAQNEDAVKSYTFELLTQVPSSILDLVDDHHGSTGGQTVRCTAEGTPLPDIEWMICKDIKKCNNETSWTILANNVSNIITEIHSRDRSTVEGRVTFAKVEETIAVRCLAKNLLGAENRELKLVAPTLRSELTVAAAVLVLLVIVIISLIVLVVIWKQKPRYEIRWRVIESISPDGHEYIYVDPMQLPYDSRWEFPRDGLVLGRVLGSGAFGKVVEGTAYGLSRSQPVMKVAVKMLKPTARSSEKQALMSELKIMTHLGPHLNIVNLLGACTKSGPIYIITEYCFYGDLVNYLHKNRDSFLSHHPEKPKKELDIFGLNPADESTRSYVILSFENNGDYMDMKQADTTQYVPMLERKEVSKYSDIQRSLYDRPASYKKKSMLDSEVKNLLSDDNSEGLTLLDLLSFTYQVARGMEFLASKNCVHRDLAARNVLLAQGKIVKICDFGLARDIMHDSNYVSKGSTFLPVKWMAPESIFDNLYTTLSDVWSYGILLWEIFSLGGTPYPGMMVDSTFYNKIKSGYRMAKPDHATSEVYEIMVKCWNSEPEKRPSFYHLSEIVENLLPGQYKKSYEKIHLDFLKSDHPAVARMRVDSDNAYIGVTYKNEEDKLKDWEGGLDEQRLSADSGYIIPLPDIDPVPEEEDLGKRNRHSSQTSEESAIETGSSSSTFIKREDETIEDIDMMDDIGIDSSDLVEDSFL
# In short: as §1
# [4] = biological target: 140 purified human kinases (Homo sapiens, UniProt P31751); conditions: PKBb
# 140 purified human kinases (Homo sapiens, UniProt P31751), sequence (P31751 whole entry): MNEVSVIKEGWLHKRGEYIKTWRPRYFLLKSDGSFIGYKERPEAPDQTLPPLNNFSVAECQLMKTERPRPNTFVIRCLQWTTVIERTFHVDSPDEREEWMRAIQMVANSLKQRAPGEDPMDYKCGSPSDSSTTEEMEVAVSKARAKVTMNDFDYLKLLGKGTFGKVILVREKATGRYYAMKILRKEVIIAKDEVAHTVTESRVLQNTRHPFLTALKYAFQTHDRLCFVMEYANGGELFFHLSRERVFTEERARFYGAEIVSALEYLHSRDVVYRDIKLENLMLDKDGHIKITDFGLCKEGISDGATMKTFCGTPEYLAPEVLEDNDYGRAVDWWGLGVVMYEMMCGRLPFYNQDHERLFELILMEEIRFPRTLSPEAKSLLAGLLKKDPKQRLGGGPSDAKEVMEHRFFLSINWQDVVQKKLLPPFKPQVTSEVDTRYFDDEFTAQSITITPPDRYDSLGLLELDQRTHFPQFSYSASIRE
# In short: as §1
# [5] = biological target: T2, 140 purified human kinases (Homo sapiens, UniProt P51955); conditions: NEK2a
# T2 sequence (P51955 1-445): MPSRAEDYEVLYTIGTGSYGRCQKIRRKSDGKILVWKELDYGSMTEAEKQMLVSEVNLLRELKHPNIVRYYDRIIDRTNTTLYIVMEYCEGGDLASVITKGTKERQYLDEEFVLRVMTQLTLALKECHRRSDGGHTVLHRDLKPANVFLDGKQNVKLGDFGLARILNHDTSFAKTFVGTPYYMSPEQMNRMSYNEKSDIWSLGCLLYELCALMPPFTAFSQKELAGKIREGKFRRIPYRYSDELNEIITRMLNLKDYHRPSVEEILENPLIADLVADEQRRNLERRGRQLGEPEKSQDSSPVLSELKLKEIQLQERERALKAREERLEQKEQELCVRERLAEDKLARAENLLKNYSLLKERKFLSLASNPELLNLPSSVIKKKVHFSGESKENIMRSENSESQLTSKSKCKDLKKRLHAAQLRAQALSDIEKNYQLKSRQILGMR
# In short: as §1
# [6] = biological target: 140 purified human kinases (Homo sapiens, UniProt P41240); conditions: CSK
# 140 purified human kinases (Homo sapiens, UniProt P41240), sequence (P41240 whole entry): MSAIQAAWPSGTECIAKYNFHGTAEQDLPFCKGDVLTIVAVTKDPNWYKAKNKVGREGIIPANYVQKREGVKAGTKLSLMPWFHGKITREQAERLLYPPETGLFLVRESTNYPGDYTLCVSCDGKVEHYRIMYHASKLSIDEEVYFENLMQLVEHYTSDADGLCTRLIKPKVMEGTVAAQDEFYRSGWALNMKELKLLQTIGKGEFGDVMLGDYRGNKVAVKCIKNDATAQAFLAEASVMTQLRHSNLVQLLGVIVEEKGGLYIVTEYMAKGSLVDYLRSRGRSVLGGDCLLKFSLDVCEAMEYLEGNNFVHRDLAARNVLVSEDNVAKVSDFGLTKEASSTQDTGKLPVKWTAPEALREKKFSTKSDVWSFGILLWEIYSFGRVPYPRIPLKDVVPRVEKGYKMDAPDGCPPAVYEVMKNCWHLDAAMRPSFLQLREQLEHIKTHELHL
# In short: as §1
# [7] = biological target: 140 purified human kinases (Homo sapiens, UniProt Q9HC98)
# 140 purified human kinases (Homo sapiens, UniProt Q9HC98), sequence (Q9HC98 whole entry): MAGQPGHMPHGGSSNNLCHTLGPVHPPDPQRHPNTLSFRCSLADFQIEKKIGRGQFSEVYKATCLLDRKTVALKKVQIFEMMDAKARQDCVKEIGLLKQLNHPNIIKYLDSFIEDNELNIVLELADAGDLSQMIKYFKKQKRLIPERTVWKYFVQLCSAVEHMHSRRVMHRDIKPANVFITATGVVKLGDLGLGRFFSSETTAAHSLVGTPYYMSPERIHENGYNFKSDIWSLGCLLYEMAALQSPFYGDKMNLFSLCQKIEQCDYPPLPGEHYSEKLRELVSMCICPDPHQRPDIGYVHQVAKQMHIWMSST
# In short: as §1
smiles,measurement,setting,value
[Cu+2].[Cu+2].[Cu+2].c1ccc(-c2csc(NCCN(CCNc3nc(-c4ccccn4)cs3)CCNc3nc(-c4ccccn4)cs3)n2)nc1.c1ccc(-c2csc(NCCN(CCNc3nc(-c4ccccn4)cs3)CCNc3nc(-c4ccccn4)cs3)n2)nc1 [[L2Cu3]6+],% Inhibition Run 1,[1]; LKB1,22.9%
same,% Inhibition Run 2,[1]; LKB1,29.1%
same,"% Inhibition, Mean",[1]; LKB1,26%
same,mean % activity,[1]; LKB1,74%
same,% activity,"[1]; LKB1, Run 1",77.1%
same,% activity,"[1]; LKB1, Run 2",70.9%
same,% Inhibition Run 1,[2],12.7%
same,% Inhibition Run 2,[2],-5.2%
same,"% Inhibition, Mean",[2],3.75%
same,mean % activity,[2],96%
same,% activity,[2]; Run 1,87.3%
same,% activity,[2]; Run 2,105.2%
same,"% Activation, Mean value",[3],4.7%
same,% Inhibition Run 1,[3],10.8%
same,% Inhibition Run 2,[3],-20.2%
same,"% Inhibition, Mean",[3],-4.7%
same,mean % activity,[3],105%
same,% activity,[3]; Run 1,89.2%
same,% activity,[3]; Run 2,120.2%
same,% Inhibition Run 1,[4],91.7%
same,% Inhibition Run 2,[4],93.5%
same,"% Inhibition, Mean",[4],93%
same,mean % activity,[4],7.4%
same,% activity,[4]; Run 1,8.3%
same,% activity,[4]; Run 2,6.5%
same,% Activity inhibition Mean,[4]; 10 µM,92.6%
same,% Activity inhibition Run 1,[4]; 10 µM,91.7%
same,% Activity inhibition Run 2,[4]; 10 µM,93.5%
same,% Activity remaining Run 1,[4]; 10 µM,8.30%
same,% Activity remaining Run 2,[4]; 10 µM,6.50%
same,% Inhibition Run 1,[5],94.1%
same,% Inhibition Run 2,[5],94%
same,"% Inhibition, Mean",[5],94%
same,mean % activity,[5],6%
same,% activity,[5]; Run 1,5.9%
same,% activity,[5]; Run 2,6%
same,% Activity inhibition Mean,[5]; 10 µM,94.1%
same,% Activity inhibition Run 1,[5]; 10 µM,94.1%
same,% Activity inhibition Run 2,[5]; 10 µM,94%
same,% Activity remaining Run 1,[5]; 10 µM,5.90%
same,% Activity remaining Run 2,[5]; 10 µM,6.00%
same,% Inhibition Run 1,[6],11.5%
same,% Inhibition Run 2,[6],10.8%
same,"% Inhibition, Mean",[6],11%
same,mean % activity,[6],89%
same,% activity,[6]; Run 1,88.5%
same,% activity,[6]; Run 2,89.2%
same,% Inhibition Run 1,[7]; NEK6,34.4%
same,% Inhibition Run 2,[7]; NEK6,27.1%
same,"% Inhibition, Mean",[7]; NEK6,31%
same,mean % activity,[7]; NEK6,69%
same,% activity,"[7]; NEK6, Run 1",65.6%
same,% activity,"[7]; NEK6, Run 2",72.9%
CC(=O)[O-].CC(=O)[O-].CC(=O)[O-].CC(=O)[O-].CC(=O)[O-].CC(=O)[O-].[Zn+2].[Zn+2].[Zn+2].c1ccc(-c2csc(NCCN(CCNc3nc(-c4ccccn4)cs3)CCNc3nc(-c4ccccn4)cs3)n2)nc1.c1ccc(-c2csc(NCCN(CCNc3nc(-c4ccccn4)cs3)CCNc3nc(-c4ccccn4)cs3)n2)nc1 [[L2Zn3]6+],"% Activation, Mean value",[1]; LKB1,9%
same,"% Inhibition, Mean",[1]; LKB1,-9%
same,mean % activity,[1]; LKB1,109%
same,% activity,"[1]; LKB1, duplicate runs",101% and 116%
same,"% Inhibition, Mean",[2],16%
same,mean % activity,[2],84%
same,% activity,[2]; duplicate runs,72% and 95%
same,"% Inhibition, Mean",[3],24%
same,"% Inhibition, Run 1 / Run 2",[3],27% and 22%
same,mean % activity,[3],76%
same,% activity,[3]; duplicate runs,74% and 78%
same,"% Inhibition, Mean",[4],65%
same,"% Inhibition, Run 1 / Run 2",[4],76% and 55%
same,mean % activity,[4],35%
same,% activity,[4]; duplicate runs,24% and 45%
same,"% Inhibition, Mean",[5],30%
same,mean % activity,[5],70%
same,% activity,[5]; duplicate runs,58% and 82%
same,"% Inhibition, Mean",[6],8%
same,mean % activity,[6],92%
same,% activity,[6]; duplicate runs,82% and 102%
same,"% Inhibition, Mean",[7]; NEK6,22%
same,"% Inhibition, Run 1 / Run 2",[7]; NEK6,25% and 20%
same,mean % activity,[7]; NEK6,78%
same,% activity,"[7]; NEK6, duplicate runs",75% and 81%
